Six molecules from patent US7723301B2, “Pharmaceutical compositions comprising an anti-teratogenic compound and applications of the same” (The Board of Trustees of the University of Arkansas, priority 2007, dated 2010) can be followed below.

Series [1] concerns primary limb bud cells (PLBCs). As to the kind of experiment: Cell death by trypan blue staining in PLBCs. The series is classed as cell-based, chicken. To be noted: for effect on juglone-induced cell death in PLBCs: pre-treatment for one hour, juglone 5 μM two hours; for effect on BMP4-induced PCD in PLBCs: rh BMP4 300 ng/ml; for effect on thalidomide-induced cell death in PLBCs: thalidomide 10 μg/ml, six hours. Here is the method: (§1) Primary limb bud cells (PLBCs) were isolated from 60 pooled wing and hindlimb buds of HH stages 23/24 embryos. Fibroblasts were gained from HH stage 34 chicken embryos or from 13.5 d.p.c. mouse embryos. Human embryonic fibroblasts were provided by Matthias Maass (2). Before adding reagents, all cell types were cultured for 16 hours in D-MEM (Gibco) plus 10% fetal calf serum (FCS) and 2% chicken serum. Treatment with thalidomide, phthalimide, recombinant human (rh) BMP4 (300 ng/ml; R&D Systems), juglone (5 μM; Sigma), recombinant mouse Noggin (30, 300, 1000 ng/ml in FIG. 4B; 300 ng/ml in FIGS. 4C and 6A), anti-human-DKK1 antibody (35, 350 and 1000 ng/ml in FIG. 4B; 350 ng/ml in FIGS. 4C and 6A), LiCl (3, 30, 60 mM in FIG. 4B; 30 mM in FIGS. 4C, 6A and 6C) and/or (2Z,3E)-6-Bromoindirubin-3-oxime (BIO, Gsk3-Inhibitor IX; 50, 500, 1000 nM in FIG. 4B; 500 nM in FIG. 6A; 50 and 500 nM in FIG. 6C; Calbiochem) were performed in Optimem1 (Invitrogen) plus 1% FCS. Unless otherwise noted, all treatments with thalidomide and rh-BMP4 and associated controls were done for six hours. Inhibitors were applied once at the beginning of incubation with the exception of LiCl that was added 150 minutes before harvesting the cells for further analyses. Pre-treatment with phenyl-N-t-butylnitrone (PBN; 2 mM; Sigma) was performed for one hour. Incubations with juglone were performed for two hours, if applicable, after a pre-treatment with PBN, Noggin, anti-Dkk1 antibody, LiCl or Gsk3-Inhibitor IX for one hour.
(§2) Cell death in PLBCs, CEFs, MEFs and HEFs was detected by staining with trypan blue (0.1% (w/v) in PBS; Sigma) for 90 seconds. Cells were counted in a counting chamber to determine the ratio of dead to live cells.

Series [2] deals with Bmp4 and Dkk1 expression in PLBCs. As to the kind of experiment: sqRT-PCR of Bmp4 and Dkk1 expression in PLBCs. It counts as cell-based, chicken. Here is the method:
as §1
(§3) RNA isolation, semi-quantitative RT-PCRs and whole mount in situ hybridizations were performed according to standard protocols that are well known within the art. RNA was isolated using TRIZOL (Gibco BRL) followed by DNAseI digestion. First strand synthesis was carried out with the Expand RT System (Roche) according to the manufacturer's instructions. PCR amplification was carried out primers and conditions within the knowledge of a person having skill in the relevant art. Quantifications were performed using NIH Image 1.62.

In series [3] the test system is Bmp4 and Dkk1 expression in HEFs. As to the kind of experiment: sqRT-PCR of Bmp4 and Dkk1 expression in HEFs. It counts as cell-based, human. On the procedure:
as §1, §3

Series [4] has as its system chicken embryos. Kind of series: Thalidomide-induced limb truncations and microphthalmia in chicken embryos. The series is classed as in vivo. To be noted: applied to chicken embryos, control reagent. On the procedure:
Fertilized eggs were purchased from Deindl GmbH, Rietberg-Varensell. They were incubated at 38° C. in a humidified incubator, windowed after one day and staged according to Hamburger and Hamilton (HH stage). Racemic thalidomide (Celgene), thalidomide enantiomers or phthalimide (Sigma) were dissolved in DMSO at 5 mg/ml and further diluted in PBS. Embryos were exposed to drugs by dropping 15 μg-3 mg thalidomide or phthalimide per kg egg weight (about 1-200 μg per embryo) in 50 μl DMSO/PBS as a single dose at HH stages 0-13 onto the embryo. Thalidomide (50 μg) or phthalimide (50 μg) in 10 μl DMSO was injected into the extra-embryonic blood vessels of HH 19 stage embryos. […] Recombinant Noggin, Dkk1 specific goat IgG (R&D Systems) or serum of non-immunized goats (Sigma) was dissolved in 0.1% BSA/0.01% Fast Green/PBS. Noggin (10 or 100 ng), Dkk1 specific goat IgG (5 or 50 ng) or serum of non-immunized goats (50 ng) was applied to a single embryo at HH stages 17-19 by injecting a 10 μl solution through the extra-embryonic membranes.
(§4) The morphology of the limbs was studied in specimens fixed in 5% trichloroacetic acid and stained for cartilage with alcian green as described (3).

Series [5] relates to human embryonic fibroblasts (HEFs). Kind of series: Cell death by trypan blue staining in HEFs. As to conditions: for effect on thalidomide-induced cell death in HEFs: Noggin 300 ng/ml, anti-DKK1 antibody 350 ng/ml, LiCl 30 mM. It counts as cell-based. On the procedure: as §1, §2
Series [6] has as its system Dkk1 and Bmp expression in limb buds. Kind of series: sqRT-PCR and whole mount in situ hybridization of Dkk1 and Bmp expression in limb buds. The series is classed as in vivo, chicken. As to conditions: data not shown. Here is the method: as §3
Series [7] concerns chicken embryos. Kind of series: Inhibitors counteracting thalidomide-induced limb truncations and microphthalmia in chicken embryos. The series is classed as in vivo. As to conditions: for embryos with limb truncations, thalidomide-treated plus inhibitor: Noggin 100 ng/embryo or LiCl 0.6 mg/embryo at HH stages 17-19. On the procedure: Fertilized eggs were purchased from Deindl GmbH, Rietberg-Varensell. They were incubated at 38° C. in a humidified incubator, windowed after one day and staged according to Hamburger and Hamilton (HH stage). Racemic thalidomide (Celgene), thalidomide enantiomers or phthalimide (Sigma) were dissolved in DMSO at 5 mg/ml and further diluted in PBS. Embryos were exposed to drugs by dropping 15 μg-3 mg thalidomide or phthalimide per kg egg weight (about 1-200 μg per embryo) in 50 μl DMSO/PBS as a single dose at HH stages 0-13 onto the embryo. Thalidomide (50 μg) or phthalimide (50 μg) in 10 μl DMSO was injected into the extra-embryonic blood vessels of HH 19 stage embryos. LiCl (99% pure, Sigma) was dissolved in sterile PBS. LiCl (0.1, 0.6 or 3.2 mg) was applied at HH stages 17-19 by dropping 500 μl of a 5 mM, 28 mM or 151 mM LiCl solution onto the embryo. Recombinant Noggin, Dkk1 specific goat IgG (R&D Systems) or serum of non-immunized goats (Sigma) was dissolved in 0.1% BSA/0.01% Fast Green/PBS. Noggin (10 or 100 ng), Dkk1 specific goat IgG (5 or 50 ng) or serum of non-immunized goats (50 ng) was applied to a single embryo at HH stages 17-19 by injecting a 10 μl solution through the extra-embryonic membranes.
as §4

The subject of series [8] is limb buds of HH stages 23/24 chicken embryos. As to the kind of experiment: Whole mount TUNEL staining of limb buds. It counts as in vivo. As to conditions: LiCl 0.6 mg per embryo at HH stages 17-19, 19 of 80. Here is the method: TUNEL staining was performed as described (7).
Series [9] has as its system primary chicken embryonic fibroblasts (CEFs). Kind of series: Cell death by trypan blue staining in CEFs. The series is classed as cell-based. As to conditions: data not shown. Here is the method:
as §1, §2

A further series deals with Wnt/β-catenin signaling. As to the kind of experiment: TOPflash luciferase reporter assay in CEFs. As to conditions: Wnt3a-conditioned medium, 24 hours. It counts as cell-based, chicken. Here is the method: Plasmids with wild type (TOPflash) or mutated (FOPflash) LEF/TCF binding sites (5) upstream of a luciferase reporter gene were transiently transfected into CEFs using Lipofectamine (Invitrogen). Following transfection for 24 hours, the cells were exposed to Wnt3a-conditioned medium or to control medium (6) with or without thalidomide or recombinant human DKK1 (150 ng/ml, R&D Biosystems) for 24 hours prior to luciferase assay. Values were normalized for transfection efficiency by co-transfection with a pSV-β-galactosidase vector and for the number of living cells. Luciferase activity was measured using the Dual-Light System (Applied Biosystems).

“Also recorded” adds a separate entry of the source.

As to `CC(C)(C)[N+]([O-])=Cc1ccccc1` [PBN, phenyl-N-t-butylnitrone], in series [1], the “effect on juglone-induced cell death in PLBCs” value is “completely reduces; also recorded: could be inhibited”, the “effect on BMP4-induced PCD in PLBCs” value was “no significant effect; also recorded: did not influence” and the “effect on thalidomide-induced cell death in PLBCs” value is recorded as “completely reduces; also recorded: completely inhibited”. The “effect on up-regulation of Bmp4 and Dkk1 expression in thalidomide-treated PLBCs” value in series [2] (pre-treatment with PBN, data not shown) is listed as “abolishes the up-regulation”. The “effect on up-regulation of Bmp4 and Dkk1 expression in thalidomide-treated HEFs” value in series [3] (pre-treatment with PBN) is given as “abolishes the up-regulation”.

For the molecule `O=C1Nc2cc(Br)ccc2/C1=C1/Nc2ccccc2/C1=N\O` [Gsk3-Inhibitor IX, (2Z,3E)-6-Bromoindirubin-3-oxime], in series [1], the “effect on juglone-induced cell death in PLBCs” value is reported as “could be inhibited”, the “effect on BMP4-induced PCD in PLBCs” value is listed as “counteracted BMP4-induced PCD in a dose-dependent manner” and the “effect on thalidomide-induced cell death in PLBCs” value is listed as “completely abrogate”.

For the molecule `O=C1NC(=O)c2ccccc21` [phthalimide], the “induction of PCD in PLBCs” value in series [1] was “did not induce PCD”. For the same molecule, the “limb or eye defects” value in the series on chicken embryos [4] is reported as “did not cause limb or eye defects”. Also, the “potential to induce PCD in HEFs” value in series [5] is “did not induce PCD”. Moreover, the “expression of Bmp4 and Dkk1 in PLBCs” value in series [2] (10 μg/ml, six hours) is reported as “did not influence the expression”. Also, in [3] (10 μg/ml, six hours), the “expression of Bmp4 and Dkk1 in HEFs” value is reported as “did not influence the expression”. The “Bmp and Dkk1 expression in limb buds” value in series [6] is “not altered”.

Turning to `[Cl-].[Li+]` [LiCl], in [1], the “effect on juglone-induced cell death in PLBCs” value is given as “could be inhibited”, the “effect on BMP4-induced PCD in PLBCs” value is reported as “counteracted BMP4-induced PCD in a dose-dependent manner” and the “effect on thalidomide-induced cell death in PLBCs” value is recorded as “completely abrogate”. The “rescue of thalidomide-induced microphthalmia” value in the series with chicken embryos [7] (0.6 mg LiCl) is “did not rescue”. For the same molecule, in the series on chicken embryos [7] (3.2 mg LiCl per embryo), the “embryos with thalidomide-induced microphthalmia plus LiCl” value was 9%. In the series with chicken embryos [7], the “embryos with limb truncations, thalidomide-treated plus inhibitor” value is 5%. Moreover, in series [8], the “individual limb buds with enhanced PCD (TUNEL) in thalidomide-treated embryos given inhibitor” value is 24%. Also, the “effect on thalidomide-induced cell death in HEFs” value in series [5] is recorded as “block thalidomide-induced cell death”. In addition, the “effect on thalidomide-induced cell death in CEFs” value in series [9] was “block thalidomide-induced cell death”.

“recombinant DKK1: recombinant human DKK1, positive control in the TOPflash assay”: in the series with Wnt/β-catenin signaling, the “effect on Wnt3a-induced TOPflash activity” value was “clearly counteracted”.

B1: Noggin: recombinant Noggin, an inhibitor of Bmp signaling (protein, UniProt P97466 28-232, looked up)
Noggin: QHYLHIRPAPSDNLPLVDLIEHPDPIFDPKEKDLNETLLRSLLGGHYDPGFMATSPPEDRPGGGGGPAGGAEDLAELDQLLRQRPSGAMPSEIKGLEFSEGLAQGKKQRLSKKLRRKLQMWLWSQTFCPVLYAWNDLGSRFWPRYVKVGSCFSKRSCSVPEGMVCKPSKSVHLTVLRWRCQRRGGQRCGWIPIQYPIISECKCSC
Consider B1, for which, in series [1], the “effect on juglone-induced cell death in PLBCs” value is “could be inhibited” and the “effect on thalidomide-induced cell death in PLBCs” value is on record as “only a partial neutralization; also recorded: clearly reduced”. Besides, the “embryos with limb truncations, thalidomide-treated plus inhibitor” value with chicken embryos [7] stood at 5%. Further, the “effect on thalidomide-induced cell death in HEFs” value in series [5] is reported as “block thalidomide-induced cell death”. Further, in [9], the “effect on thalidomide-induced cell death in CEFs” value is reported as “block thalidomide-induced cell death”.
